Laboratory results reported in the NIST ThermoML archive (doi:10.1016/j.jct.2012.06.014).

Experiment: cn = amount concentration of the nth substance listed, in mol/dm3
Conditions: 298.15 K, 101 kPa, Liquid, Open capillary

O=S(=O)([O-])[O-].O=S(=O)([O-])[O-].O=S(=O)([O-])[O-].[Fe+3].[Fe+3] [ferric sulfate] + O
Conditions	binary diffusion coefficient [m2/s]
c1 = 0.05	1.48e-09
c1 = 0.06	1.45e-09
c1 = 0.08	1.42e-09
c1 = 0.1	1.41e-09
c1 = 0.15	1.42e-09
c1 = 0.2	1.48e-09
